Calls of active or inactive are those of the source. Rule as the data show it, for most assays here: actives have a measured Kd and inactives only a lower limit.
How the values were obtained:
[1] = target: T1, Beta-adrenergic receptor kinase 1 (Homo sapiens, UniProt P25098)
T1 sequence (P25098 whole entry): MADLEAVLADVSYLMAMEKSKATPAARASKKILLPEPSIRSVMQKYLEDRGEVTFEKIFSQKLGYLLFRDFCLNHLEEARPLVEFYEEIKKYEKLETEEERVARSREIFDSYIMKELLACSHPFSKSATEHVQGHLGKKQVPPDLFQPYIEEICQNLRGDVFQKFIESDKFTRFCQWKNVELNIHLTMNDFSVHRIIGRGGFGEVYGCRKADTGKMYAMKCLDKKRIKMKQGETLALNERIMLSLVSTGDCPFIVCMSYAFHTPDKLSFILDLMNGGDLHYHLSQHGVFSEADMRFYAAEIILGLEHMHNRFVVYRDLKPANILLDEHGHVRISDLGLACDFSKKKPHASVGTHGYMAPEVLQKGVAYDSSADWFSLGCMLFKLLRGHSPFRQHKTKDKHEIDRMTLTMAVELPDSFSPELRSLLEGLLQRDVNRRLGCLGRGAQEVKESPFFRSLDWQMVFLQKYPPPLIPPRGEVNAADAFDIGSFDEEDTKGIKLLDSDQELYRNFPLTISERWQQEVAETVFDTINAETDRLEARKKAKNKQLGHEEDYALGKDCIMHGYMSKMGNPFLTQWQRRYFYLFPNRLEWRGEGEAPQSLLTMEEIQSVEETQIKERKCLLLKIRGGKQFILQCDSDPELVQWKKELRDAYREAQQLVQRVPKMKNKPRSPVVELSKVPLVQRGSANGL

[2] = target: 5'-AMP-activated protein kinase catalytic subunit alpha-1 (Homo sapiens, UniProt Q13131)
5'-AMP-activated protein kinase catalytic subunit alpha-1, sequence (Q13131 whole entry): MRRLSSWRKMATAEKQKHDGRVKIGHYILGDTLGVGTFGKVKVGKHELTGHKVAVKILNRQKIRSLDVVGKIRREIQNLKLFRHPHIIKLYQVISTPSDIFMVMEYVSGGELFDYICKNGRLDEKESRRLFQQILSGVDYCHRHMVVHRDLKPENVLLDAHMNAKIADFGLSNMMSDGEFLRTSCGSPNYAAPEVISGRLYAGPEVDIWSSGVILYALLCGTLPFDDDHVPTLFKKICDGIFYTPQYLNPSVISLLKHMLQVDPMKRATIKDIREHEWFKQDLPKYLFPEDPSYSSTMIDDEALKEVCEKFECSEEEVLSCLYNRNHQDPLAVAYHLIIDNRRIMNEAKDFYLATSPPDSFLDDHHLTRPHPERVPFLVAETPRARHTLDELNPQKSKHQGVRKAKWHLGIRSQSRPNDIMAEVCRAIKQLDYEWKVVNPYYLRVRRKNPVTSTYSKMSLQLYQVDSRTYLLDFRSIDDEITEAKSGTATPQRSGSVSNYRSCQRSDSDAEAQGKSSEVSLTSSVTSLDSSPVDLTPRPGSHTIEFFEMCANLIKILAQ

Pyridoxal kinase = target: T2, Pyridoxal kinase (Homo sapiens, UniProt O00764)
T2 sequence (O00764 whole entry): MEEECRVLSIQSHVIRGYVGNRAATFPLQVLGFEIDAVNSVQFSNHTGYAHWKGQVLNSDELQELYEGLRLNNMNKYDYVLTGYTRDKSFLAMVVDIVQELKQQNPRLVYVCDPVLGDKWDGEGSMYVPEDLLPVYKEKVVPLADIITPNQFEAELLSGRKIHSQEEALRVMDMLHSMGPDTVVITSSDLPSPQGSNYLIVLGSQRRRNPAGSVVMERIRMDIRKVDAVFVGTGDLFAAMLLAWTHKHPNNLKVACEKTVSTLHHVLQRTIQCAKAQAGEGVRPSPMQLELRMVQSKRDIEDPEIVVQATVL

[3] = target: T3, Breakpoint cluster region protein (Homo sapiens, UniProt P11274)
T3 sequence (P11274 whole entry): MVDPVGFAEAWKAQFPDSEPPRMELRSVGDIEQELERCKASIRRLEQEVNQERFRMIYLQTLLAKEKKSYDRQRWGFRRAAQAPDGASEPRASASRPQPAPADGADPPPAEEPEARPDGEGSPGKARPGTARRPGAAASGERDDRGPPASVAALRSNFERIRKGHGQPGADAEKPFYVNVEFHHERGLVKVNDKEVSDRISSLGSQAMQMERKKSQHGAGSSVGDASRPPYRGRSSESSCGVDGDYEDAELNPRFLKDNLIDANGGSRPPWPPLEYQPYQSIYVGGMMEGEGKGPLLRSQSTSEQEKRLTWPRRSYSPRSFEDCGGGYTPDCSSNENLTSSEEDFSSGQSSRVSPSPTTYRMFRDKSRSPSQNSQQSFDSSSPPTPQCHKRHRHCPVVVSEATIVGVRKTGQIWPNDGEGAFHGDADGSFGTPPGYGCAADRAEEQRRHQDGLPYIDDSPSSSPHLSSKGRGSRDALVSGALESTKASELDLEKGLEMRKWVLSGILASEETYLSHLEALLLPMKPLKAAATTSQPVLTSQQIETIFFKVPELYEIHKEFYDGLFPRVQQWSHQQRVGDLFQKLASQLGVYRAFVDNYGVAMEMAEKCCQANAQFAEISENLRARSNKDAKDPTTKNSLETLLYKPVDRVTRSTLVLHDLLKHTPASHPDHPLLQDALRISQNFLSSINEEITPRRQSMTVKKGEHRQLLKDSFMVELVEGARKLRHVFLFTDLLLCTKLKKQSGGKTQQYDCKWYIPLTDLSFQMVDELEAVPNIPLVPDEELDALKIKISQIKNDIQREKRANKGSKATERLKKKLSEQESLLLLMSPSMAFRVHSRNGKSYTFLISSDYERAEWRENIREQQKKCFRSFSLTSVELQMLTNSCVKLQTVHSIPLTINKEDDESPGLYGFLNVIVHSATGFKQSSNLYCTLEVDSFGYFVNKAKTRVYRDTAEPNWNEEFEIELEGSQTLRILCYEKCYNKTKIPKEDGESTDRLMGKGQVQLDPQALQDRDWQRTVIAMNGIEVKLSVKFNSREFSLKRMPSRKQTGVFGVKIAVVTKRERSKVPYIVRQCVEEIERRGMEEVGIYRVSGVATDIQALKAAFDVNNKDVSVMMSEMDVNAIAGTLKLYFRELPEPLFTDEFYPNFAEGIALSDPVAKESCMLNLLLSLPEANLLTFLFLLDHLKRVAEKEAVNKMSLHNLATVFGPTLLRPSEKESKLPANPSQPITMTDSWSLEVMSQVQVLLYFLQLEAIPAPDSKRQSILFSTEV

[4] = target: Platelet-derived growth factor receptor beta (Homo sapiens, UniProt P09619)
Platelet-derived growth factor receptor beta, sequence (P09619 whole entry, the tested form may be a part): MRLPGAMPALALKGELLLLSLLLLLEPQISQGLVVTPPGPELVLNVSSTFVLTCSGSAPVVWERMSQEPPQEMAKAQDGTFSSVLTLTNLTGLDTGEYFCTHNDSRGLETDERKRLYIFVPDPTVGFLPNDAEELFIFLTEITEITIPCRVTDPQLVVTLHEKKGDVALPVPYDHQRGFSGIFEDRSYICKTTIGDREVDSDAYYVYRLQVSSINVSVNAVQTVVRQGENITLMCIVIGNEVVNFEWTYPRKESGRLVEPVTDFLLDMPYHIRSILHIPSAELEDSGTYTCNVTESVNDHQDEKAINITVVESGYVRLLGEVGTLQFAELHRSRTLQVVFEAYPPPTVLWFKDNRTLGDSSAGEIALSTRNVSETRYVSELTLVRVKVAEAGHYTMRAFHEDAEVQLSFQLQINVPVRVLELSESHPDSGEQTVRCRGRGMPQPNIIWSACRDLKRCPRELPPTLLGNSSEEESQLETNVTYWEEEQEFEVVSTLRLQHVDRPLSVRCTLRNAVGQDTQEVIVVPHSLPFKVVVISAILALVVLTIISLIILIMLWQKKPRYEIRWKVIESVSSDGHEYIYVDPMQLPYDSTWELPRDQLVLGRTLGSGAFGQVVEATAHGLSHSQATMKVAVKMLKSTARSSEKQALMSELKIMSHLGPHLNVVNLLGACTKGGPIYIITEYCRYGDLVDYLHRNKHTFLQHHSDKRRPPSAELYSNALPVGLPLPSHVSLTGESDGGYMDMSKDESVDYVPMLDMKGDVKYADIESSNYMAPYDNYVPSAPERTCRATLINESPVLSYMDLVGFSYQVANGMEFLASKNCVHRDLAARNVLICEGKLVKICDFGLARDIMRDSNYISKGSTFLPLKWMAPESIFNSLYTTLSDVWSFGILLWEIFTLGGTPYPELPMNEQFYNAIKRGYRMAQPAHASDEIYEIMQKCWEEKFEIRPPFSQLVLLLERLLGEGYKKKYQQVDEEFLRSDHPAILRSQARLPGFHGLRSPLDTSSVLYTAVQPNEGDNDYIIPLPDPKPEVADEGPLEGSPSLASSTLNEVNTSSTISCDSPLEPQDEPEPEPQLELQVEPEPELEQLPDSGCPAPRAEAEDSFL

[5] = target: T4, AarF domain-containing protein kinase 1 (Homo sapiens, UniProt Q86TW2)
T4 sequence (Q86TW2 whole entry): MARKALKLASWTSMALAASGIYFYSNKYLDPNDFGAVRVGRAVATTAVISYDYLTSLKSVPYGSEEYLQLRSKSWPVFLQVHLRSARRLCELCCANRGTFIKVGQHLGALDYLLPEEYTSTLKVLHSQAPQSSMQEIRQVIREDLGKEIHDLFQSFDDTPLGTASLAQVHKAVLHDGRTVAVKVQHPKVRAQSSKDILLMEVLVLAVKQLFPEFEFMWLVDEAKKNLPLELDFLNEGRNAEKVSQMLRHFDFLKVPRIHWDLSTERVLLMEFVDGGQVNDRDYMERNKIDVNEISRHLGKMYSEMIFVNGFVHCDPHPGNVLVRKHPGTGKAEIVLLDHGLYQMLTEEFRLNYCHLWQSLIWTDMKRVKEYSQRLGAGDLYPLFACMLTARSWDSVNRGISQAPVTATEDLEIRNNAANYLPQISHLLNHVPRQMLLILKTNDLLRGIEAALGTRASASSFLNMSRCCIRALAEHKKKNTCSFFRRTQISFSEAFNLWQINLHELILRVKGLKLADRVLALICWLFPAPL

[6] = target: Atypical kinase COQ8A, mitochondrial (Homo sapiens, UniProt Q8NI60)
Atypical kinase COQ8A, mitochondrial, sequence (Q8NI60 whole entry): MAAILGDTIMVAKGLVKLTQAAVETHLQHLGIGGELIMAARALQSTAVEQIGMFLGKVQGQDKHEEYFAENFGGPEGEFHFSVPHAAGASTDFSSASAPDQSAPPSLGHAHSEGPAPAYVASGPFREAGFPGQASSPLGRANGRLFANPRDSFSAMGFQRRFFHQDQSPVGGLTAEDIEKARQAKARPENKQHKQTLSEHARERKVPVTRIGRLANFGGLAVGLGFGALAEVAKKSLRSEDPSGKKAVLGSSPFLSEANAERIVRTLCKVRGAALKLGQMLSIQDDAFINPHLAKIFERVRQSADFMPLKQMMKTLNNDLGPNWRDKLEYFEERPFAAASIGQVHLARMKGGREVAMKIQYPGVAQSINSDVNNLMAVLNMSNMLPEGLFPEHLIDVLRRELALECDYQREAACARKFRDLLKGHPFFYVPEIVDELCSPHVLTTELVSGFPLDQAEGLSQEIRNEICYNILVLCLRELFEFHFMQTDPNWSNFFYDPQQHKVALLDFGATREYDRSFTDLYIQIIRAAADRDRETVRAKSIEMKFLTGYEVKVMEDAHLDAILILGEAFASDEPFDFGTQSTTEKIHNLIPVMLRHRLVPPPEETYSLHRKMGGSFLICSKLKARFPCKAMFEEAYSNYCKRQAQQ
Also: in the data inactive means no Kd found up to 30 µM.

Row | Kd [1] | Kd [2] | Kd (Pyridoxal kinase) | Kd [3] | Kd [4] | Kd [5] | Kd [6] | Compound
1 | > 30 µM (inactive) | > 30 µM (inactive) | > 30 µM (inactive) | > 30 µM (inactive) | > 30 µM (inactive) | > 30 µM (inactive) | > 30 µM (inactive) | COc1ccc(-c2ccc3ncc4c(c3c2)n(-c2ccc(N3CCNCC3)c(C(F)(F)F)c2)c(=O)n4C)cn1 [BGT-226 FREE BASE]
2 | > 30 µM (inactive) | > 30 µM (inactive) | > 30 µM (inactive) | > 30 µM (inactive) | > 30 µM (inactive) | > 30 µM (inactive) | > 30 µM (inactive) | FC(F)(F)c1ccc(CNc2ccc(Cc3c[nH]c4ncc(Cl)cc34)cn2)cn1 [PEXIDARTINIB]
3 | > 30 µM (inactive) | > 30 µM (inactive) | > 30 µM (inactive) | > 30 µM (inactive) | > 30 µM (inactive) | > 30 µM (inactive) | > 30 µM (inactive) | S=C(NCc1ccc2c(c1)OCO2)N1CCN(c2ncnc3c2oc2ccccc23)CC1 [AMUVATINIB]
4 | > 30 µM (inactive) | > 30 µM (inactive) | > 30 µM (inactive) | > 30 µM (inactive) | > 30 µM (inactive) | > 30 µM (inactive) | > 30 µM (inactive) | C=CC(=O)Nc1cccc(Nc2nc(Nc3ccc(N4CCN(C(C)=O)CC4)cc3OC)ncc2C(F)(F)F)c1 [ROCILETINIB]
5 | > 30 µM (inactive) | > 30 µM (inactive) | > 30 µM (inactive) | > 30 µM (inactive) | > 30 µM (inactive) | > 30 µM (inactive) | > 30 µM (inactive) | Cc1cc(Nc2nc(N[C@@H](C)c3ncc(F)cn3)ncc2Cl)n[nH]1 [AZD-1480]
6 | > 30 µM (inactive) | > 30 µM (inactive) | > 30 µM (inactive) | > 30 µM (inactive) | > 30 µM (inactive) | > 30 µM (inactive) | > 30 µM (inactive) | O=S(=O)(c1cccc2c(O)nccc12)N1CCCNCC1 [HYDROXYFASUDIL]
7 | > 30 µM (inactive) | > 30 µM (inactive) | > 30 µM (inactive) | > 30 µM (inactive) | > 30 µM (inactive) | > 30 µM (inactive) | > 30 µM (inactive) | C[C@@H]1COC(Nc2ccc3ncnc(Nc4ccc(OCc5nccs5)c(Cl)c4)c3c2)=N1 [VARLITINIB]
8 | > 30 µM (inactive) | > 30 µM (inactive) | > 30 µM (inactive) | > 30 µM (inactive) | > 30 µM (inactive) | 0.04 µM (active) | > 30 µM (inactive) | CCN1CCN(Cc2ccc(Nc3ncc(F)c(-c4cc(F)c5nc(C)n(C(C)C)c5c4)n3)nc2)CC1 [ABEMACICLIB]
9 | > 30 µM (inactive) | > 30 µM (inactive) | > 30 µM (inactive) | > 30 µM (inactive) | > 30 µM (inactive) | > 30 µM (inactive) | > 30 µM (inactive) | O=c1[nH]c([C@@H]2CCCN2)nc2c1oc1ccc(Cl)cc12
10 | > 30 µM (inactive) | 15.4 µM (active) | > 30 µM (inactive) | > 30 µM (inactive) | > 30 µM (inactive) | > 30 µM (inactive) | > 30 µM (inactive) | O=C(O)c1ccc2c(c1)nc(Nc1cccc(Cl)c1)c1ccncc12 [SILMITASERTIB]
11 | > 30 µM (inactive) | > 30 µM (inactive) | > 30 µM (inactive) | > 30 µM (inactive) | > 30 µM (inactive) | > 30 µM (inactive) | > 30 µM (inactive) | CC[C@@](C)(Nc1ccnc(-c2c[nH]c3ncccc23)n1)C(=O)NCC(F)(F)F [DECERNOTINIB]
12 | > 30 µM (inactive) | > 30 µM (inactive) | > 30 µM (inactive) | > 30 µM (inactive) | > 30 µM (inactive) | > 30 µM (inactive) | > 30 µM (inactive) | CCc1cc2c(cc1N1CCC(N3CCOCC3)CC1)C(C)(C)c1[nH]c3cc(C#N)ccc3c1C2=O [ALECTINIB]

Row | Compound | Kd [1] | Kd [2] | Kd (Pyridoxal kinase) | Kd [3] | Kd [4] | Kd [5] | Kd [6]
13 | N#CCNC(=O)c1ccc(-c2ccnc(Nc3ccc(N4CCOCC4)cc3)n2)cc1 [MOMELOTINIB] | > 30 µM (inactive) | > 30 µM (inactive) | > 30 µM (inactive) | > 30 µM (inactive) | > 30 µM (inactive) | 0.217 µM | > 30 µM (inactive)
14 | COc1cc(F)c(F)c(Nc2ccc(I)cc2F)c1NS(=O)(=O)C1(C[C@H](O)CO)CC1 [REFAMETINIB] | > 30 µM (inactive) | > 30 µM (inactive) | > 30 µM (inactive) | > 30 µM (inactive) | > 30 µM (inactive) | 0.778 µM | > 30 µM (inactive)
15 | CC(C)CC(=O)Nc1[nH]nc2c1CN(C(=O)C1CCN(C)CC1)C2(C)C [PHA-793887] | > 30 µM (inactive) | > 30 µM (inactive) | > 30 µM (inactive) | > 30 µM (inactive) | > 30 µM (inactive) | > 30 µM (inactive) | > 30 µM (inactive)
16 | Cc1c(NC(=O)OC[C@@H]2COCCN2)cn2ncnc(Nc3ccc4c(cnn4Cc4cccc(F)c4)c3)c12 [AC-480] | > 30 µM (inactive) | > 30 µM (inactive) | > 30 µM (inactive) | > 30 µM (inactive) | > 30 µM (inactive) | > 30 µM (inactive) | > 30 µM (inactive)
17 | COCCN1CCN(Cc2ccc(-c3n[nH]c4c3C(=O)c3c(NC(=O)NN5CCOCC5)cccc3-4)cc2)CC1 [RGB-286638] | > 30 µM (inactive) | > 30 µM (inactive) | > 30 µM (inactive) | 1.24 µM (active) | 1.36 µM | > 30 µM (inactive) | > 30 µM (inactive)

Reference: ChEMBL document CHEMBL3991601, “The target landscape of clinical kinase drugs” (Science, 2017)
